Results published in ChEMBL document CHEMBL2331416, “Investigation of antibacterial mode of action for traditional and amphiphilic aminoglycosides” (Bioorg Med Chem Lett, 2013).
pKd: −log10 of the molar value. Converted amounts (≈) assume the structure as drawn. The source made the active and inactive calls. The rule behind the calls is not given here.

Legend:
[1] = system: Staphylococcus aureus; experiment: Antibacterial activity against Staphylococcus aureus ATCC 25923 assessed as growth inhibition; assay type: functional
[2] = Binding affinity to 2-AP labeled 16s rRNA (unknown origin) having pairing of G1405-C1496 by fluorescence assay; settings: for pKd: read-out: Kd
[3] = system: Escherichia coli; experiment: Antibacterial activity against Escherichia coli ATCC 25922 assessed as growth inhibition; assay type: functional
[4] = Binding affinity to 2-AP labeled 16s rRNA (unknown origin) having pairing of C1405-G1496 by fluorescence assay
[5] = system: Staphylococcus aureus; experiment: Antibacterial activity against Staphylococcus aureus ATCC 25923 assessed as membrane disruption at 4 X MIC after 2 hrs by SYTOX staining-based fluorescence microscopic analysis; assay type: functional, organism-based
[6] = system: Escherichia coli; experiment: Antibacterial activity against Escherichia coli ATCC 25922 assessed as membrane disruption at 4 X MIC after 2 hrs by SYTOX staining-based fluorescence microscopic analysis; assay type: functional, organism-based

| SMILES | MIC [1] | Kd [2] | MIC [3] | pKd [4] | pKd [2] | Activity [5] | Activity [6] |
| --- | --- | --- | --- | --- | --- | --- | --- |
| NCC[C@H](O)C(=O)N[C@@H]1C[C@H](N)[C@@H](O[C@H]2O[C@H](CN)[C@@H](O)[C@H](O)[C@H]2N)[C@H](O[C@@H]2O[C@H](CO)[C@@H](O[C@@H]3O[C@H](CN)[C@H](O)[C@@H](O)[C@@H]3N)[C@H]2O)[C@H]1O [NEOKACIN] | 2.15 µM (≈ 1.54 µg/mL) | Not Active | 8.59 µM (≈ 6.15 µg/mL) | 5.78 |  |  |  |
| C[C@H]1O[C@@H](O[C@@H]2[C@@H](O)[C@H](N)C[C@H](N)[C@H]2O[C@H]2O[C@H](CN)[C@@H](O)[C@H](O)[C@H]2N)[C@H](O)[C@@H](O)[C@@H]1N | 11 µM (≈ 5.14 µg/mL) | Not Active | 19.8 µM (≈ 9.26 µg/mL) | 6.25 |  |  |  |
| C[C@H]1O[C@@H](O[C@@H]2[C@@H](O)[C@H](NC(=O)[C@@H](O)CCN)C[C@H](N)[C@H]2O[C@H]2O[C@H](CN)CC[C@H]2N)[C@H](O)[C@@H](O)[C@@H]1N [PYRANKACIN] | 2.8 µM (≈ 1.5 µg/mL) |  | 5.59 µM (≈ 3 µg/mL) | 5.87 | 6.19 |  |  |
| C[C@H]1O[C@@H](O[C@@H]2[C@@H](O)[C@H](N)C[C@H](N)[C@H]2O[C@H]2O[C@H](CN)CC[C@H]2N)[C@H](O)[C@@H](O)[C@@H]1O | 6.5 µM (≈ 2.84 µg/mL) |  | 26 µM (≈ 11.3 µg/mL) | 5.92 | 5.88 |  |  |
| NC[C@H]1O[C@H](O[C@H]2[C@H](O[C@@H]3O[C@H](CO)[C@@H](N)[C@H](O)[C@H]3O)[C@@H](O)[C@H](N)C[C@@H]2N)[C@H](N)[C@@H](O)[C@@H]1O | 29.6 µM (≈ 14.3 µg/mL) |  | 44 µM (≈ 21.3 µg/mL) | 5.55 | 5.25 |  |  |
| NC[C@H]1O[C@H](O[C@H]2[C@H](O[C@@H]3O[C@H](CO)[C@@H](O)[C@H](N)[C@H]3O)[C@@H](O)[C@H](N)C[C@@H]2N)[C@H](N)[C@@H](O)[C@@H]1O | 59.2 µM (≈ 28.6 µg/mL) | Not Active | 57.2 µM (≈ 27.7 µg/mL) | 5.94 |  |  |  |
| NC[C@H]1O[C@H](O[C@H]2[C@H](O[C@@H]3O[C@H](CO)[C@@H](O)[C@H](O)[C@H]3O)[C@@H](O)[C@H](N)C[C@@H]2N)[C@H](N)[C@@H](O)[C@@H]1O | 44.4 µM (≈ 21.5 µg/mL) |  | 92.4 µM (≈ 44.8 µg/mL) | 6.22 | 5.01 |  |  |
| NC[C@H]1O[C@@H](O[C@@H]2[C@@H](O)[C@H](N)C[C@H](N)[C@H]2O[C@H]2O[C@H](CN)[C@@H](O)[C@H](O)[C@H]2N)[C@H](O)[C@@H](O)[C@@H]1O | 14.8 µM (≈ 7.16 µg/mL) |  | 35.1 µM (≈ 17 µg/mL) | 6.07 | 4.58 |  |  |
| NC[C@@H]1O[C@H](O[C@H]2[C@@H](O)[C@H](O[C@@H]3[C@@H](O)[C@H](N)C[C@H](N)[C@H]3O[C@H]3O[C@H](CN)[C@@H](O)[C@H](O)[C@H]3N)O[C@@H]2CO)[C@H](N)[C@@H](O)[C@@H]1O [FRAMYCETIN] | 1.1 µM (≈ 0.676 µg/mL) |  | 4.4 µM (≈ 2.7 µg/mL) | 5.90 | 5.94 | inactive |  |
| CCCCCCCCCCCCCCCC(=O)NC[C@H]1O[C@@H](O[C@@H]2[C@@H](O)[C@H](N)C[C@H](N)[C@H]2O[C@H]2O[C@H](CN)[C@@H](O)[C@H](O)[C@H]2N)[C@H](O)[C@@H]1O[C@@H]1O[C@H](CN)[C@H](O)[C@@H](O)[C@@H]1N | 2.35 µM (≈ 2 µg/mL) |  | 4.69 µM (≈ 4 µg/mL) | 6.13 | 5.90 | Active | Active |
| NC[C@H]1O[C@@H](O[C@@H]2[C@@H](O)[C@H](N)C[C@H](N)[C@H]2O[C@H]2O[C@H](CN)[C@@H](O)[C@H](O)[C@H]2N)[C@H](O)[C@@H](O)[C@@H]1N | 29.6 µM (≈ 14.3 µg/mL) |  | 41.8 µM (≈ 20.2 µg/mL) | 6.58 | 5.43 |  |  |
